≈ marks a conversion by molar mass, not a printed value.
Experiments:
[1] = tested on: AMP-activated protein kinase (AMPK); assay: AMPK activation (pAMPK Western blot) in SKOV3 cells; assay type: cell-based, human; conditions: over time, FIG. 8
Description: Another indicator of cellular energy status and metabolic compromise is the activity on the cellular kinase AMP-activated protein kinase (AMPK). AMPK is a master energy sensor. AMPK regulates both enzyme activities and gene expression. When energy levels are low, and ATP levels fall with the concomitant rise in […] levels, AMPK is activated and phosphorylated. When energy levels are surfeit, AMPK is inactivated and not phosphorylated. Thus, AMPK controls metabolic fluxes between anabolic and catabolic states.
We determined the ability of C31 or Riv7d to cause the activation of AMPK in a variety of cancer cells in vitro. SKOV3 cells were cultured in DMEM containing 5 mM glucose medium with 10% fetal calf serum, 0.01 mg/ml insulin and 1% penicillin/streptomycin. Antibodies to pAMPK and AMPK were obtained from Cell Signaling. Cells were grown in 6-well plates at 5×10^4 per well and incubated overnight. Following drug treatment, the cells were harvested in Laemmli buffer and boiled for 5 minutes. Proteins were separated on a 4-15% SDS-PAGE gradient gel and transferred to a nitrocellulose membrane.

[2] = tested on: SKOV3 human ovarian cancer xenograft; assay: tumor xenograft size, SKOV3; assay type: in vivo, Athymic Nude mice
Protocol: Xenograft studies were performed using various mmFAS inhibitors disclosed herein. Human cancer xenograft studies are known in the art. (See Pizer et al., Cancer Res. 56:1189-1193, 1996; Pizer et al., Cancer Res. 60: 213-218, 2000; Testa et al., Oncogene 24: 7455-7464, 2005).
In particular, C31 mouse efficacy studies were conducted in order to evaluate anti-neoplastic activity of C31 in vivo. Athymic Nude mice were implanted with HCT116 human colon, SKOV3 human ovarian or OVCAR3 human ovarian cancer cell lines and were treated when the grown tumor xenografts reached at least 150 to 200 mm^3.^1 ^1 Compounds were solubilized in TEP (80% polyethylene glycol (PEG) 400, 10% ethanol, 10% tween-80) in a volume of 50 μL.

[3] = tested on: Human breast cancer cell lines; assay: XTT cytotoxicity assay, human breast cancer cell lines; assay type: cell-based; conditions: 5 human breast cancer cell lines, read-out: LC50 (the source's name)
Protocol: Cytotoxicity can be easily measured using XTT assays, which provide an indication of mitochondrial activity. The XTT assay is a non-radioactive alternative for the [^51Cr] release cytotoxicity assay. XTT is a tetrazolium salt that is reduced to a formazan dye only by metabolically active, viable cells. The reduction of XTT is measured spectrophotometrically as OD490-OD650. Thus, cells that are actively metabolizing will form reaction product when subjected to XTT measurement.
For this experiment, cells were cultured under standard culture conditions. MCF7 human breast cancer cells were cultured in DMEM containing 5 mM glucose medium with 10% fetal calf serum, 0.01 mg/ml insulin and 1% penicillin/streptomycin. To measure the cytotoxicity of specific compounds against cancer cells, 9×10^3 MCF7 cells were plated per well in 96-well plates. Following overnight culture, the compounds, dissolved in DMSO, were added to the wells in 1 μl volume at specified concentrations. Vehicle controls were run for each experiment. Each condition was run in triplicate. […] Plates were read at OD490 on a PerkinElmer Victor 1420. […]
Using the XTT assay, LC50 values for C31 were determined for numerous human cancer cell lines and human hepatocytes, as shown in the following table: […]

mitochondrial FAS = assay: 14C-malonate incorporation into mitochondrial fatty acids, mitochondria isolated from rat liver; assay type: biochemical; conditions: FIG. 3
Protocol: Mammalian mitochondrial FAS activity may be determined in a variety of ways. For example, [14C]malonate may be added to isolated mitochondria, fatty acids are extracted, and then radioactivity is tested. (See Zhang et al., J. Bio. Chem. 278(41): 40067-40074, 2003; Mikolajczyk, J. and Brody, S., Eur. J. Biochem. 187: 431-437, 1990). The mitochondria are purified using methods known in the art. (See Qiagen's Qproteome Mitochondria Isolation Kit; Methods in Enzymology, Vol. 10, Chapter 11, 1967). To test the inhibition of mmFAS activity, a test compound is added to the reaction mixture. Therefore, a test compound may be screened according the methods described herein as follows: (i) isolating mitochondria; (ii) incubating mitochondria with [14C]malonate with and without a test compound; and (iii) determining the quantity of lipids and/or fatty acids produced. By comparing the amount of product in the presence of the test compound to the amount in its absence, the degree of inhibition can be determined.
Mitochondria from MCF7 cells were prepared following manufacturer's protocol (Mitochondria Isolation Kit, Sigma, Saint Louis, Mo.). Rat liver mitochondria were isolated by homogenization with a tissue homogenizer in H-medium (220 mM mannitol, 70 mM sucrose, 2 mM HEPES, and 0.5 g/L of fatty acid free bovine serum albumin, pH 7.4). The homogenate was centrifuged at 1100 g for 3 min and washed twice with H-medium. The supernatants were pooled and centrifuged at 6800 g for 15 min. The pellet was then rinsed again and centrifuged at 3000 g for 3 min. The mitochondria supernatants were saved. The sediments were resuspended in H-medium and centrifuged at 3000 g for 3 min. The mitochondria supernatants were combined and centrifuged at 20,000 g for 15 min. The resulting mitochondria pellet were rinsed and centrifuged again at 20,000 g for 20 min.
Isolated mitochondria (100-200 μg) were mixed with 50 mM TES-KOH (pH 7.2), 10 mM MgCl2, 0.3 M sorbitol, 0.1% BSA, 1 mM each of ATP, ADP, NADH, NADPH, CoA, DTT and 1 μCi of [2-^14C]malonic acid (50 mCi/mmol) in a total volume of 200 μl. The reaction was performed for 30 min at room temperature. C31, Riv7d or vehicle were added at the beginning of this reaction. At the end of 30 minutes, the mitochondria pellet was separated from supernatant by centrifugation at 14000 rpm for 5 min. After washing with 500 μl of 50 mM TES-KOH (pH 7.2) and 0.3 M sorbitol, the mitochondria were incubated in 200 μl of H2O and 20 μl of 10 M KOH for 15 min at 65° C. Then the samples were added with 40 μl of 5 M H2SO4 and 20 μl of 1 mM palmitic acid (in 1 M acetic acid in isopropanol). The ^14C labeled fatty acids were twice extracted with hexane and sent to scintillation counting after drying.

Which “AMPK activation (pAMPK levels, Western blot)” value [1] does the source give for `CCCCCCCCC1(C)SC(=O)C=C1OCC(=O)Nc1ccc(Cl)cc1` (stereo not drawn) [Compound C31] here?
The value was “rapid activation of AMPK”.

And the “Average Tumor Size Endpoint (% Change)” value ([2]; Study 11007, SKOV-3, oral b.i.d. 11 days, 50 mg/kg)?
The value was −78 % Change.

And the “Average Tumor Size Endpoint (% Change)” value ([2]; Study 52307, SKOV-3, oral b.i.d. 15 days, 50 mg/kg)?
Its value is −75 % Change.

What about the “Average Tumor Size Endpoint (% Change)” value ([2]; Study 121306, SKOV-3, IP b.i.d. 12 days, 10 mg/kg) of the same molecule?
Its value is “+179 % Change”.

What about the “Average Tumor Size Endpoint (% Change)” value ([2]; Study 121306, SKOV-3, IP b.i.d. 12 days, 50 mg/kg) of the same molecule?
The value was −78 % Change.

And the “Average Tumor Size Endpoint (% Change)” value ([2]; Study 121306, SKOV-3, IP b.i.d. 12 days, 100 mg/kg)?
The value was −78 % Change.

What about the “Average Tumor Size Endpoint (% Change)” value ([2]; Study 3150772607, SKOV-3, IP b.i.d. 10 days, 25 mg/kg) of the same molecule?
The value was −74 % Change.

What about the “Average Tumor Size Endpoint (% Change)” value ([2]; Study 3150772607, SKOV-3, IP b.i.d. 10 days, 50 mg/kg) of the same molecule?
The value was −87 % Change.

And the “Average Tumor Size Endpoint (% Change)” value ([2]; Study 3150772607, SKOV-3, IP b.i.d. 10 days, 150 mg/kg)?
The value was −83 % Change.

And the CC50 [3]?
Its CC50 is 3.3 to 16.7 µg/mL (≈ 8.05 to 40.7 µM).

And the “IC50, inhibition of mitochondrial FAS (14C-malonate incorporation)” value (mitochondrial FAS; isolated mitochondria)?
Its value is “less than 4 μg per mL”.

And the “effect on 14C-malonate incorporation into mitochondrial fatty acids” value (mitochondrial FAS; mitochondria isolated from rat liver)?
Its value is “dose-dependent inhibitory effect”.

— patent US20140243401A1, “METHODS OF SCREENING COMPOUNDS THAT ARE CYTOTOXIC TO TUMOR CELLS AND METHODS OF TREATING TUMOR CELLS USING SUCH COMPOUND” (The Johns Hopkins University, priority 2010, published 2014)
